From publication PMC10311661, “In Silico Discovery of 5′-Modified 7-Deoxy-7-ethynyl-4′-thioadenosine as a HASPIN Inhibitor and Its Synergistic Anticancer Effect with the PLK1 Inhibitor” (ACS Central Science, 2023)

Legend:
Assay in all cases: KINOMEscan (scanMAX) competition binding at […], less than […] of control
Details in all cases: read-out: % of control at 100 nM
[1] = molecular target: CLK2 (Homo sapiens, UniProt P49760)
[2] = molecular target: DYRK1A (Homo sapiens, UniProt Q13627)
[3] = molecular target: T1, MEK5 (Homo sapiens, UniProt Q13163)
T1 construct: gene MAP2K5
T1 sequence (Q13163 1-448): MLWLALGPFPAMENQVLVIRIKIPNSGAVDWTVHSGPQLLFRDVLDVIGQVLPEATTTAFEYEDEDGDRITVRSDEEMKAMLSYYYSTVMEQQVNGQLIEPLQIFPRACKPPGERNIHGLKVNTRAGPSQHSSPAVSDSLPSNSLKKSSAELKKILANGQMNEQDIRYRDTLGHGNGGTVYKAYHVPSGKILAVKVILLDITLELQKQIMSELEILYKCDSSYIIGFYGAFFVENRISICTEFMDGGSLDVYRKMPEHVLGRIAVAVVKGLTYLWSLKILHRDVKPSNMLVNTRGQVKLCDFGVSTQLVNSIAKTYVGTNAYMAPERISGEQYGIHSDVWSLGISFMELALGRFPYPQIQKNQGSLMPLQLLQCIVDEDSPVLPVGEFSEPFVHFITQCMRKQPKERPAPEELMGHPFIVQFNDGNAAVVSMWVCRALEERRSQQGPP

Measured: remaining binding at 0.1 µM

CLK2, sequence (P49760 whole entry): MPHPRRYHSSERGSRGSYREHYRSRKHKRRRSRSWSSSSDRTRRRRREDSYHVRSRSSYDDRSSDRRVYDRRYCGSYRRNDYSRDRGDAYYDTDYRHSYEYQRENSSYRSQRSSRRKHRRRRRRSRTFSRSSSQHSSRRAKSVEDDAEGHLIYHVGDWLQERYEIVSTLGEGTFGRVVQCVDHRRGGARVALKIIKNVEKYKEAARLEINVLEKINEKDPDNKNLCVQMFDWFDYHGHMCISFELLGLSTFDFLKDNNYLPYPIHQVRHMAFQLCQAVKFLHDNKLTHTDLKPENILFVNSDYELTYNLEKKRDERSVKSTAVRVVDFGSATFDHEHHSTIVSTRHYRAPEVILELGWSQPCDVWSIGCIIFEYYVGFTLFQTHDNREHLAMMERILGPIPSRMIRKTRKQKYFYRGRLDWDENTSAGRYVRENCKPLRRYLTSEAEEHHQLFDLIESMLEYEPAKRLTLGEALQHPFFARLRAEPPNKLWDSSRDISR

C#Cc1cn([C@@H]2S[C@H](CN=[N+]=[N-])[C@@H](O)[C@H]2O)c2ncnc(N)c12 [compound 7, LJ4827]
< 1%: all assays above
